Values of other authors as cited in patent publication US20050112339A1, “Antimicrobial protection for plastic structures” (priority 2003, published 2005).

Details: in water

Row | Molecule | water solubility
1 | On1ccccc1=S.On1ccccc1=S.[Cu] [copper pyrithione] | 0.1 milligrams per liter
2 | [Na+].[O-][n+]1ccccc1[S-] [sodium pyrithione] | 450 grams per liter
3 | zinc pyrithione | 6 milligrams per liter
